Reference: patent US20220056018A1, “SREBP INHIBITORS COMPRISING A THIOPHENE CENTRAL RING” (Capulus Therapeutics, LLC, priority 2019, published 2022)

Tests used:
[1] = test system: SREBP; test: Reporter Screening Assay (SRE-luciferase reporter, HepG2); type: cell-based; settings: Homo sapiens; SRE-luciferase reporter HepG2 cells, 24 hours, 0.01 uM to 10 uM; read-out: I: Reporter Screening Assay (Ave EC50 (nM))
Description: Reporter Screening Assay: This assay was used to evaluate the effect on transcriptional activity SREBP of selected compounds using an SRE-luciferase reporter construct. On day 1, 10,000 cells were seeded in a 96 well (white) plate as per the plate map in Growth media without antibiotics. Cells were incubated at 37° C. for 8 hours. After 8 hours, cells were washed with DPBS for complete removal of FBS. DPBS was completely removed and Growth media was replaced with phenol free treatment medium (90 μl) with different FBS concentrations. The cells were then incubated at 37° C. for 24 hours with varying doses (0.01 uM to 10 uM) of compounds. Then a Luciferase assay was performed.
Reagents for performing Luciferase assay were stored at −20° C. To a tube of lyophilized assay substrate was added 1 mL Substrate Solvent and mixed well. The Substrate tube after reconstitution was covered with aluminum foil so as to keep it protected from light. The assay buffer was thawed to room temperature. To 20 mL Assay Buffer was added 200 μL of reconstituted 100× Substrate and mixed well. The reconstituted substrate as well as the assay solution (buffer+substrate) was protected from light throughout the procedure by keeping it covered with aluminum foil. Using a multi-channel pipette, 100 μL Assay Solution (buffer+substrate) was added directly to each sample well in Plate 1, which was incubated for 30 min (plate was covered with aluminum foil). After 30 min incubation, the plate was read for total luminescence. Each well was read for 2 seconds in a plate luminometer. (Microplate reader Envision Microplate reader from Perkin Elmer). Precaution was taken to incubate plate exactly for 30 min prior to reading on the plate reader.
SREBPv1 Reporter cell line: HepG2—#32251. Growth Medium: MEM (Corning 10-010), 10% FBS, 1% GlutaMax (Invitrogen Catalog #35050061), […] (Invitrogen Catalog # A1113803) and 1% Penicillin-Streptomycin (Pen-Strep). Treatment Media: Phenol-free MEM (Invitrogen Catalog #51200-038) and 1% GlutaMax (Invitrogen Catalog #35050061). Luciferase Assay: LightSwitch Luciferase Assay Kit (Catalog #32032). LDH assay: Pierce LDH Cytotoxicity Assay Kit (Catalog # SD249616).

[2] = Stability in human liver microsomes; type: in vitro ADME; settings: 37° C., NADPH
Description: Half-Life Human Microsomes:
(§1) Compounds were evaluated for stability in human liver microsomes. A 10 mM stock solution of the compound being evaluated was prepared in DMSO and diluted with water:acetonitrile (1:1) to a concentration of 1 mM. A working concentration of 100 μM was prepared by further dilution with water:acetonitrile (1:1). To make the preincubation mixture, 2.5 μL of the diluted compound was combined with 75 μL of human liver microsomes at 3.33 mg/mL, and 85 μL of 100 mM potassium phosphate buffer, and this mixture was pre-incubated for 10 min at 37° C. To make the 60 minute mixture without cofactor, 32.5 μL of the preincubation mixture was combined with 17.5 μL of 100 mM potassium phosphate buffer and incubated for 60 min at 37° C. To make the 0 min sample with cofactor (NADPH), 16.25 μL of the preincubation mixture was combined with 200 μL of acetonitrile containing internal standard and 8.75 μL of cofactor (NADPH). To make the incubation mixture, 62 μL of cofactor (2.85 mM) was combined with the remaining incubation mixture, and incubated for 60 min at 37° C. To prepare the sample mixture to be evaluated, 25 μL incubation mixture was combined with 200 μL of acetonitrile containing internal standard and vortexed for 5 min at 1200 rpm, then centrifuged for 10 min at 4000 rpm. The supernatant was diluted 2 fold with water and injected on LC-MS/MS. The sample mixture was evaluated by LC-MS/MS using 10 mM ammonium acetate with 0.100 FA as the aqueous mobile phase, and methanol as the organic mobile phase.

[3] = Stability in mouse liver microsomes; type: in vitro ADME
Description: as §1
Half-Life Mouse Microsomes:
Compounds were evaluated in mouse liver microsomes following a similar procedure as described above for human liver microsomes. A similar procedure could be used to evaluate compounds in rat liver microsomes.

| Structure (SMILES) | EC50 [1] | percent of compound remaining after 60 min in human liver microsomes [2] | percent parent remaining after 60 min in liver microsomes [3] |
| --- | --- | --- | --- |
| CC(C)(C)c1cc(-c2csc(-c3ccc(S(C)(=O)=O)cc3)c2)ccn1 [Compound I-8723, 2-(tert-butyl)-4-(5-(4-(methylsulfonyl)phenyl)thiophen-3-yl)pyridine] | > 500 nM | +++ (>60.1 = +++) | +++ (>60.1 = +++) |
| CC(C)S(=O)(=O)c1ccc(-c2cc(-c3ccnc(C(C)(C)C)c3)cs2)cc1 [Compound I-8728, 2-(tert-butyl)-4-(5-(4-(isopropylsulfonyl)phenyl)thiophen-3-yl)pyridine] | 250 to 500 nM | ++ (30.1-60 = ++) | +++ (>60.1 = +++) |
| CC(C)(C)c1cc(-c2csc(-c3ccc(S(=O)(=O)CC4CCCC4)cc3)c2)ccn1 [Compound I-8729, 2-(tert-butyl)-4-(5-(4-((cyclopentylmethyl)sulfonyl)phenyl)thiophen-3-yl)pyridine] | > 500 nM | + (0-30 = +) | + (0-30 = +) |
| CC(C)NC(=O)Nc1ccc(-c2cc(-c3ccnc(C(C)(C)C)c3)cs2)c(Cl)c1 [Compound I-8731, 1-(4-(4-(2-(tert-butyl)pyridin-4-yl)thiophen-2-yl)-3-chlorophenyl)-3-isopropylurea] | < 249 nM | ++ (30.1-60 = ++) | ++ (30.1-60 = ++) |
| CCOC(=O)Nc1ccc(-c2cc(-c3ccnc(C(C)(C)C)c3)cs2)c(Cl)c1 [Compound I-8735, Ethyl (4-(4-(2-(tert-butyl)pyridin-4-yl)thiophen-2-yl)-3-chlorophenyl)carbamate] | 250 to 500 nM | +++ (>60.1 = +++) | +++ (>60.1 = +++) |
| CC(C)(C)c1cc(-c2csc(-c3ccc(NC(=O)N4CCC(O)CC4)cc3Cl)c2)ccn1 [Compound I-8736, N-(4-(4-(2-(tert-butyl)pyridin-4-yl)thiophen-2-yl)-3-chlorophenyl)-4-hydroxypiperidine-1-carboxamide] | 250 to 500 nM | +++ (>60.1 = +++) | +++ (>60.1 = +++) |
| CC(C)OC(=O)Nc1ccc(-c2cc(-c3ccnc(C(C)(C)C)c3)cs2)c(Cl)c1 [Compound I-8741, Isopropyl (4-(4-(2-(tert-butyl)pyridin-4-yl)thiophen-2-yl)-3-chlorophenyl)carbamate] | < 249 nM | +++ (>60.1 = +++) | +++ (>60.1 = +++) |
| CC(C)(C)c1cc(-c2csc(-c3ccc(NC(=O)NC4CCC(O)CC4)cc3Cl)c2)ccn1 (stereo not drawn) [Compound I-8742, 1-(4-(4-(2-(tert-butyl)pyridin-4-yl)thiophen-2-yl)-3-chlorophenyl)-3-(4-hydroxycyclohexyl)urea] | > 500 nM | +++ (>60.1 = +++) | +++ (>60.1 = +++) |
| CC(C)(C)c1cc(-c2csc(-c3ccc(NC(=O)NC4CCNCC4)cc3Cl)c2)ccn1 [Compound I-8755, 1-(4-(4-(2-(tert-butyl)pyridin-4-yl)thiophen-2-yl)-3-chlorophenyl)-3-(piperidin-4-yl)urea] | > 500 nM | +++ (>60.1 = +++) | +++ (>60.1 = +++) |
| CC(C)(C)c1cc(-c2csc(-c3ccc(NC(=O)NCCN4CCCC4)cc3Cl)c2)ccn1 [Compound I-8761, 1-(4-(4-(2-(tert-butyl)pyridin-4-yl)thiophen-2-yl)-3-chlorophenyl)-3-(2-(pyrrolidin-1-yl)ethyl)urea] | > 500 nM | +++ (>60.1 = +++) | +++ (>60.1 = +++) |
| CC(C)(C)c1cc(-c2csc(-c3ccc(NC(=O)OCCN4CCCC4)cc3Cl)c2)ccn1 [Compound I-8762, 2-(pyrrolidin-1-yl)ethyl (4-(4-(2-(tert-butyl)pyridin-4-yl)thiophen-2-yl)-3-chlorophenyl)carbamate] | > 500 nM | +++ (>60.1 = +++) | + (0-30 = +) |
| CC(C)OC(=O)Nc1ccc(-c2cc(-c3ccnc(C(C)(C)CO)c3)cs2)c(Cl)c1 [Compound I-8907, Isopropyl (3-chloro-4-(4-(2-(1-hydroxy-2-methylpropan-2-yl)pyridin-4-yl)thiophen-2-yl)phenyl)carbamate] | 250 to 500 nM | +++ (>60.1 = +++) | +++ (>60.1 = +++) |
| CC(C)(CO)c1cc(-c2csc(-c3ccc(NC(=O)OC4CC4)cc3Cl)c2)ccn1 [Compound I-8918, Cyclopropyl (3-chloro-4-(4-(2-(1-hydroxy-2-methylpropan-2-yl)pyridin-4-yl)thiophen-2-yl)phenyl)carbamate] | 250 to 500 nM | +++ (>60.1 = +++) | ++ (30.1-60 = ++) |
| O=S(=O)(Nc1ccc(-c2cc(-c3ccnc(C4(CO)CC4)c3)cs2)c(Cl)c1)NC1CC1 [Compound I-9090] | – | ++ (30.1-60 = ++) | ++ (30.1-60 = ++) |
| CS(=O)(=O)Nc1ccc(-c2cc(-c3ccnc(O[C@@H]4CCC[C@@H]4O)c3)cs2)c(Cl)c1 [Compound I-9111, N-(3-chloro-4-(4-(2-(((1R,2S)-2-hydroxycyclopentyl)oxy)pyridin-4-yl)thiophen-2-yl)phenyl)methanesulfonamide] | – | +++ (>60.1 = +++) | +++ (>60.1 = +++) |
| CS(=O)(=O)Nc1ccc(-c2cc(-c3ccnc(OCCC4(O)COC4)c3)cs2)c(Cl)c1 [Compound I-9112, N-(3-chloro-4-(4-(2-(2-(3-hydroxyoxetan-3-yl)ethoxy)pyridin-4-yl)thiophen-2-yl)phenyl)methanesulfonamide] | – | +++ (>60.1 = +++) | +++ (>60.1 = +++) |
| CS(=O)(=O)Nc1ccc(-c2cc(-c3ccnc(OCC4COCCO4)c3)cs2)c(Cl)c1 (stereo not drawn) [Compound I-9113, N-(4-(4-(2-((1,4-dioxan-2-yl)methoxy)pyridin-4-yl)thiophen-2-yl)-3-chlorophenyl)methanesulfonamide] | – | ++ (30.1-60 = ++) | +++ (>60.1 = +++) |
| CC(C)(CO)c1cc(-c2cc(-c3ccc(NC(=O)OC4CC4)cc3Cl)cs2)ccn1 [Compound I-9161, Cyclopropyl(3-chloro-4-(5-(2-(1-hydroxy-2-methylpropan-2-yl)pyridin-4-yl)thiophen-3-yl)phenyl)carbamate] | – | ++ (30.1-60 = ++) | ++ (30.1-60 = ++) |
| CC(C)NS(=O)(=O)Nc1ccc(-c2csc(-c3ccnc(C(C)(C)CO)c3)c2)c(Cl)c1 [Compound I-9162, 2-(4-(4-(2-chloro-4-(((isopropylamino)thio)amino)phenyl)thiophen-2-yl)pyridin-2-yl)-2-methylpropan-1-ol, S,S-dioxide] | – | + (0-30 = +) | +++ (>60.1 = +++) |
